Data from patent publication US20220033407A1, “N-(pyridin-2-ylsulfonyl)cyclopropanecarboxamide Derivatives and their Use in the Treatment of Disease” (NOVARTIS AG, priority 2018, published 2022).

How the values were obtained:
[1] = target: T1, delF508-CFTR (Homo sapiens, UniProt P13569, DEL508-508); experiment: delF508-CFTR functional activity in primary human bronchial epithelial cells (HBECs), Multi-Transepithelial Clamp Circuit (MTECC-24) assay, equivalent short circuit current; assay type: cell-based; details: primary CF HBECs; for MTECC24 CFHBEC-Amax %: relative to reference combination 2 μM 3-(6-(1-(2,2-difluorobenzo[d][1,3]dioxol-5-yl)cyclopropane-1-carboxamido)-3-methylpyridin-2-yl)benzoic acid (24 h) + 0.5 μM N-(2,4-di-tert-butyl-5-hydroxyphenyl)-4-oxo-1,4-dihydroquinoline-3-carboxamide; for EC50: test compound added 24 h before assay, potentiator (S)-3-amino-6-methoxy-N-(3,3,3-trifluoro-2-hydroxy-2-methylpropyl)-5-(trifluoromethyl)picolinamide present at assay, mean of at least two replicates, read-out: MTECC24 CFHBEC-EC50
T1 construct: functional activity of the CFTR channel (Chloride ion transport) in patient derived primary human bronchial epithelial cells; host or cells: patient-derived primary human bronchial epithelial cells (HBECs), delF508-CFTR
Method in brief: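 Patient-derived delF508 HBECs, grown at air-liquid interface about two weeks, were corrected with compound basolaterally for 24 h. Compound was then re-added apically and basolaterally in HEPES pH7.4 assay medium, with sequential modulators including forskolin and the picolinamide potentiator. Ieq was recorded, normalised to 0.1% DMSO wells, and EC50 fitted from 10-point curves.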

[2] = target: T2, delF508-CFTR-HRP (Homo sapiens, UniProt P13569, DEL508-508); experiment: Measurement of delF508-CFTR-HRP surface expression in CFBE41o- cells (HRP luminescence); assay type: cell-based; details: for Emax: CFBE41o-, read-out: DelF508-CFTR-HRP Amax %; for EC50: mean of at least two replicates;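 for DelF508-CFTR-HRP Amax %: percent efficacy relative to a reference CFTR corrector compound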
T2 construct: expressed in transfected cells
Method in brief: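 Stably transfected CFBE41o- cells carrying HRP in the fourth extracellular loop of delF508-CFTR, induced with 500 ng/mL doxycycline for 48 h, then compound-treated 24 h at 37° C (10-point, 3-fold, top 10 μM). Surface HRP detected by luminescent substrate; EC50 from logistic fit, triplicates, normalized to lowest-concentration median.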

T1 sequence (P13569 with tags, fused parts or gaps DEL508-508): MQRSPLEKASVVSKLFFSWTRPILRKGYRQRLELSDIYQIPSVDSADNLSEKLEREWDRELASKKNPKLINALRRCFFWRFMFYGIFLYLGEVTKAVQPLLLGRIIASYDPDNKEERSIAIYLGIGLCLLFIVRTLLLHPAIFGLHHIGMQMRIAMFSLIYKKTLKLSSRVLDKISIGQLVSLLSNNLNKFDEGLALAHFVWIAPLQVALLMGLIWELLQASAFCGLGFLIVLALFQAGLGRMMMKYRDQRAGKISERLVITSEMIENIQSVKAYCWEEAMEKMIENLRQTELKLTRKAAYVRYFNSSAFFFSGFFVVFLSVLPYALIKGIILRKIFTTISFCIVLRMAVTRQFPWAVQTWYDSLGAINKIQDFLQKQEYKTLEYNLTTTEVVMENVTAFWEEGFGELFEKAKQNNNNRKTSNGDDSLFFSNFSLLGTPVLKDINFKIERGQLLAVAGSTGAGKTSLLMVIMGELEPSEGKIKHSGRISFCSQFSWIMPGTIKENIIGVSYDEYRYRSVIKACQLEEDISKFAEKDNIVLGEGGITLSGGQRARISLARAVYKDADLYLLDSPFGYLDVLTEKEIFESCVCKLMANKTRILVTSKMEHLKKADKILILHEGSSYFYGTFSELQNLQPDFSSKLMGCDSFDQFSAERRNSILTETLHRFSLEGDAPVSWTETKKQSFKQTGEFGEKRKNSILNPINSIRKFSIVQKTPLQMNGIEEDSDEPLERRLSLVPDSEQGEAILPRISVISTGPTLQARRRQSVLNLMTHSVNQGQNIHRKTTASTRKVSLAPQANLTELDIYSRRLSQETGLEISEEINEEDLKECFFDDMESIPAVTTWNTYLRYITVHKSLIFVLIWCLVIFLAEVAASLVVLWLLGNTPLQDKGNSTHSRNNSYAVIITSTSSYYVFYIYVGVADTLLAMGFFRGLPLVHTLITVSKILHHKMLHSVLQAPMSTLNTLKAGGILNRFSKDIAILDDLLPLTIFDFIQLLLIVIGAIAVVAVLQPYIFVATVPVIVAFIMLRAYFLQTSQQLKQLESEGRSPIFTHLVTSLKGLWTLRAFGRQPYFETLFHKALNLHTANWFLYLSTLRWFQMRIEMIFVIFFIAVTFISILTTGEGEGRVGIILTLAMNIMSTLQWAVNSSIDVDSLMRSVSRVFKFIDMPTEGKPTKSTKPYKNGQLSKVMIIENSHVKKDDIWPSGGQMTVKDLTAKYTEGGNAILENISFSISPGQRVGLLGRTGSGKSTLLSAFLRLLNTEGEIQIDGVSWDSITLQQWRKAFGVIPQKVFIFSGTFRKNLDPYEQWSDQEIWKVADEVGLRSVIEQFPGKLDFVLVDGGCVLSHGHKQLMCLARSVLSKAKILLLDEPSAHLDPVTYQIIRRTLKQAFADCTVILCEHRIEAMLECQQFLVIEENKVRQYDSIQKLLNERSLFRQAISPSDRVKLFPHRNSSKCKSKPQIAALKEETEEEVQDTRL
T2 sequence (P13569 with tags, fused parts or gaps DEL508-508): as above

| Structure (SMILES) | MTECC24 CFHBEC-Amax % [1] [%] | EC50 [1] [nM] | Emax [2] [%] | EC50 [2] [nM] |
| --- | --- | --- | --- | --- |
| CN(C)c1cccc(S(=O)(=O)NC(=O)C2(Oc3cc(Cl)ccc3C3CC4(CCC4)C3)CC2)n1 [Example 7-15, 1-(5-Chloro-2-(spiro[3.3]heptan-2-yl)phenoxy)-N-((6-(dimethylamino)pyridin-2-yl)sulfonyl)cyclopropane-1-carboxamide] | 120.7 | 166 | 442 | 860 |
| NC1(C(F)(F)F)CCN(c2cccc(S(=O)(=O)NC(=O)C3(Oc4cc(Cl)ccc4C4CC5(CCC5)C4)CC3)n2)CC1 [Example 7-17, N-((6-(4-amino-4-(trifluoromethyl)piperidin-1-yl)pyridin-2-yl)sulfonyl)-1-(5-chloro-2-(spiro[3.3]heptan-2-yl)phenoxy)cyclopropane-1-carboxamide] | 128.4 | 57 | 377 | 420 |
| CC1(C)CCN(c2ccc(Cl)cc2OC2(C(=O)NS(=O)(=O)c3cccc(N4CC[C@H](O)C4)n3)CC2)CC1 [Example 8-1, (S)-1-(5-Chloro-2-(4,4-dimethylpiperidin-1-yl)phenoxy)-N-((6-(3-hydroxypyrrolidin-1-yl)pyridin-2-yl)sulfonyl)cyclopropane-1-carboxamide] | 197.2 | 373 | – | 1740 |
| O=C(NS(=O)(=O)c1cccc(N2CC[C@H](O)C2)n1)C1(Oc2cc(Cl)ccc2N2CC3(CCCCC3)C2)CC1 [Example 9-1, (S)-1-(5-chloro-2-(2-azaspiro[3.5]nonan-2-yl)phenoxy)-N-((6-(3-hydroxypyrrolidin-1-yl)pyridin-2-yl)sulfonyl)cyclopropanecarboxamide] | 206.5 | 294 | 647 | 1060 |
| C[C@]1(O)CCN(c2cccc(S(=O)(=O)NC(=O)C3(Oc4cc(Cl)ccc4N4CC5(CCCCC5)C4)CC3)n2)C1 [Example 9-7, (S)-1-(5-Chloro-2-(2-azaspiro[3.5]nonan-2-yl)phenoxy)-N-((6-(3-hydroxy-3-methylpyrrolidin-1-yl)pyridin-2-yl)sulfonyl)cyclopropanecarboxamide] | 131.1 | 123 | 472 | 580 |
| Cc1ccc(N2CCC3(CC2)CC3)c(OC2(C(=O)NS(=O)(=O)c3cccc(N4CC[C@H](O)C4)n3)CC2)c1 [Example 9-11, (S)—N-((6-(3-Hydroxypyrrolidin-1-yl)pyridin-2-yl)sulfonyl)-1-(5-methyl-2-(6-azaspiro[2.5]octan-6-yl)phenoxy)cyclopropanecarboxamide] | 133.4 | 396 | 580 | 1640 |
| O=C(NS(=O)(=O)c1cccc(N2CC[C@H](O)C2)n1)C1(Oc2cc(Cl)ccc2N2CCC3(CCC3)CC2)CC1 [Example 9-12, (S)-1-(5-Chloro-2-(7-azaspiro[3.5]nonan-7-yl)phenoxy)-N-((6-(3-hydroxypyrrolidin-1-yl)pyridin-2-yl)sulfonyl)cyclopropanecarboxamide] | 160.7 | 776 | 579 | 1330 |
| O=C(NS(=O)(=O)c1cccc(N2CC[C@H](O)C2)n1)C1(Oc2cc(Cl)ccc2N2CCC3(CCCC3)CC2)CC1 [Example 9-13, (S)-1-(5-Chloro-2-(8-azaspiro[4.5]decan-8-yl)phenoxy)-N-((6-(3-hydroxypyrrolidin-1-yl)pyridin-2-yl)sulfonyl)cyclopropanecarboxamide] | 128.4 | 171 | 638 | 1040 |

The next lines start with the values.

| MTECC24 CFHBEC-Amax % [1] [%] | EC50 [1] [nM] | Emax [2] [%] | EC50 [2] [nM] | Structure (SMILES) |
| --- | --- | --- | --- | --- |
| 170.7 | 454 | 279 | 700 | O=C(NS(=O)(=O)c1cccc(N2CC[C@H](O)C2)n1)C1(Oc2cc(Cl)ccc2N2CCC3(CCCCC3)CC2)CC1 [Example 9-14, (S)-1-(5-Chloro-2-(3-azaspiro[5.5]undecan-3-yl)phenoxy)-N-((6-(3-hydroxypyrrolidin-1-yl)pyridin-2-yl)sulfonyl)cyclopropanecarboxamide] |
| 138.2 | 865 | 317 | 2200 | O=C(NS(=O)(=O)c1cccc(N2CC[C@H](O)C2)n1)C1(Oc2cc(Cl)ccc2N2CCC(C(F)(F)F)CC2)CC1 [Example 9-16, (S)-1-(5-Chloro-2-(4-(trifluoromethyl)piperidin-1-yl)phenoxy)-N-((6-(3-hydroxypyrrolidin-1-yl)pyridin-2-yl)sulfonyl)cyclopropanecarboxamide] |
| 148.1 | 548 | 510 | 1300 | O=C(NS(=O)(=O)c1cccc(N2CC[C@H](O)C2)n1)C1(Oc2cc(Cl)ccc2N2CC3CCC(C3)C2)CC1 [Example 9-18, 1-(2-(3-Azabicyclo[3.2.1]octan-3-yl)-5-chlorophenoxy)-N-((6-((S)-3-hydroxypyrrolidin-1-yl)pyridin-2-yl)sulfonyl)cyclopropanecarboxamide] |
| 161.2 | 749 | 594 | 2420 | O=C(NS(=O)(=O)c1cccc(N2CC[C@H](O)C2)n1)C1(Oc2cc(Cl)ccc2NC2CCC(C(F)(F)F)CC2)CC1 (stereo partly drawn) [Example 9-19, (S)-1-(5-Chloro-2-((4-(trifluoromethyl)cyclohexyl)amino)phenoxy)-N-((6-(3-hydroxypyrrolidin-1-yl)pyridin-2-yl)sulfonyl)cyclopropanecarboxamide] |
| 98.5 | 832 | 729 | 2910 | O=C(NS(=O)(=O)c1cccc(N2CC[C@H](O)C2)n1)C1(Oc2cc(Cl)ccc2N2CC3(CCC3)C2)CC1 [Example 9-20, (S)-1-(5-Chloro-2-(2-azaspiro[3.3]heptan-2-yl)phenoxy)-N-((6-(3-hydroxypyrrolidin-1-yl)pyridin-2-yl)sulfonyl)cyclopropanecarboxamide] |
| 82.1 | 1760 | 139 | 4460 | O=C(NS(=O)(=O)c1cccc(N2CC[C@H](O)C2)n1)C1(Oc2cc(Cl)ccc2N2CC3(C2)CC(F)(F)C3)CC1 [Example 9-22, (S)-1-(5-Chloro-2-(6,6-difluoro-2-azaspiro[3.3]heptan-2-yl)phenoxy)-N-((6-(3-hydroxypyrrolidin-1-yl)pyridin-2-yl)sulfonyl)cyclopropanecarboxamide] |
| 135.8 | 389 | 641 | 2170 | O=C(NS(=O)(=O)c1cccc(N2CC[C@H](O)C2)n1)C1(Oc2cc(Cl)ccc2N2CC3CCCC3C2)CC1 (stereo partly drawn) [Example 9-24, 1-(5-Chloro-2-(hexahydrocyclopenta[c]pyrrol-2(1H)-yl)phenoxy)-N-((6-((S)-3-hydroxypyrrolidin-1-yl)pyridin-2-yl)sulfonyl)cyclopropanecarboxamide] |
| 79.3 | 290 | 656 | 1580 | CC1(C)CCN(c2ccc(Cl)cc2OC2(C(=O)NS(=O)(=O)c3cccc(N4CCC(O)CC4)n3)CC2)CC1 [Example 9-41, 1-(5-Chloro-2-(4,4-dimethylpiperidin-1-yl)phenoxy)-N-((6-(4-hydroxypiperidin-1-yl)pyridin-2-yl)sulfonyl)cyclopropane-1-carboxamide] |
| 93.9 | 138 | 588 | 1350 | CC1(C)CCN(c2ccc(Cl)cc2OC2(C(=O)NS(=O)(=O)c3cccc(N4CCC(C)(O)CC4)n3)CC2)CC1 [Example 9-42, 1-(5-Chloro-2-(4,4-dimethylpiperidin-1-yl)phenoxy)-N-((6-(4-hydroxy-4-methylpiperidin-1-yl)pyridin-2-yl)sulfonyl)cyclopropane-1-carboxamide] |
| 161.6 | 182 | 746 | 460 | CC1(C)CCN(c2ccc(Cl)cc2OC2(C(=O)NS(=O)(=O)c3cccc(N4CCC(O)(c5cccc(C(F)(F)F)c5)CC4)n3)CC2)CC1 [Example 10-2, 1-(5-chloro-2-(4,4-dimethylpiperidin-1-yl)phenoxy)-N-((6-(4-hydroxy-4-(3-(trifluoromethyl)phenyl)piperidin-1-yl)pyridin-2-yl)sulfonyl)cyclopropanecarboxamide] |
| 103.3 | 482 | 717 | 2630 | Cc1ccc(N2CCC(C)(C)CC2)c(OC2(C(=O)NS(=O)(=O)c3cccc(N4CC[C@H](O)C4)n3)CC2)c1 [Example 10-4, (S)-1-(2-(4,4-dimethylpiperidin-1-yl)-5-methylphenoxy)-N-((6-(3-hydroxypyrrolidin-1-yl)pyridin-2-yl)sulfonyl)cyclopropanecarboxamide] |
| 103.9 | 80 | 462 | 750 | CC1(C)CCN(c2ccc(Cl)cc2OC2(C(=O)NS(=O)(=O)c3cccc(N4CCC(O)(C(C)(C)C)CC4)n3)CC2)CC1 [Example 10-6, N-((6-(4-(tert-butyl)-4-hydroxypiperidin-1-yl)pyridin-2-yl)sulfonyl)-1-(5-chloro-2-(4,4-dimethylpiperidin-1-yl)phenoxy)cyclopropanecarboxamide] |
